Data taken from patent US20110262442A1, “COMPOSITIONS FOR TREATING CNS DISORDERS” (Adenios, Inc., priority 2009, published 2011).

What was measured:
[1] = system: blood brain barrier; assay: Evans Blue dye extravasation across the blood brain barrier; format: in vivo, mice; conditions: single i.v. injection 100 μl 0.01 nM, 1 h before dye
Experimental: The objective of this experiment was to determine if the blood brain barrier could be modulated by activation of adenosine receptors. NECA is a non-selective adenosine receptor agonist, with similar affinities for A1, A2A and A3 adenosine receptors and a low affinity for the A2b adenosine receptor. In order to determine if activation of adenosine receptors would induce extravasation of Evans Blue dye across the blood brain barrier (BBB), mice were treated with: NECA, a non-selective adenosine receptor agonist (n=5, 100 μl 0.01 nM); SCH58261, an A2A adenosine receptor specific antagonist (n=5, 1 mg/kg); pertussis toxin, an agent known to induce BBB leakiness and as such used as a positive control (n=7, 200 μl); and, PBS as a vehicle control (n=5, 100 μl). CD73^−/− mice, which lack the ability to produce extracellular adenosine, were also treated with NECA (n=4, 100 μl 0.01 nM). Treatments were administered as a single i.v. injection one hour prior to i.v. injection of 200 μl 1% Evans Blue dye ([…] total dye injected). Four hours after administration of Evans Blue, mice were anesthetized with a ketamine/xylazine mix and perfused via the left ventricle with ice cold PBS. […] Following extraction, the tissue/solvent mixture was centrifuged at 500×g for 30 minutes and 100 μl of supernatant was read on a BioTex spectrophotometer at 620 nm. Data is expressed as μg Evans Blue/ml DMF.

[2] = system: hCMEC/D3 cells; assay: Jurkat cell migration across hCMEC/D3-seeded Transwell (in vitro BBB); format: cell-based, human; conditions: hCMEC/D3 on Transwell, migrated cells counted after 24 hours
Description: The blood brain barrier (“BBB”) is comprised of endothelial cells. During late stages of EAE, lymphocytes are known to cross the BBB. In order to determine if adenosine receptor stimulation of brain endothelial cells could promote lymphocyte migration through the BBB, an in vitro BBB was established. The human brain endothelial cell line hCMEC/D3 (Weksler et al., “Blood-brain Barrier-specific Properties of a Human Adult Brain Endothelial Cell Line,” […] (2005); Poller et al., “The Human Brain Endothelial Cell Line hCMEC/D3 as a Human Blood-brain Barrier Model for Drug Transport Studies,” J. Neurochem. 107(5):1358-1368 (2008), which are hereby incorporated by reference in their entirety) was obtained, which has been previously described as having BBB properties.
hCMEC/D3 cells were seeded onto Transwell and allowed to grow to confluencey. 2×10^6 Jurkat cells were added to the upper chamber with or without NECA (general adenosine receptor [AR] agonist), CCPA (A1 AR agonist), CGS 21860 (A2A AR agonist), or DMSO vehicle. After 24 hours, migrated cells in the lower chamber were counted. Values are relative to the number of cells that migrate through non-HCMECD3 seeded transwells.

CCNC(=O)[C@H]1O[C@@H](n2cnc3c(N)ncnc32)[C@H](O)[C@@H]1O [NECA, 5′-N-ethylcarboxamidoadenosine]
Evans Blue dye migration across the BBB vs. PBS control ([1]; CD73−/− mice): almost five fold increase
Evans Blue dye migration across the BBB vs. control mice ([1]; WT mice): increase over control mice
lymphocyte (Jurkat) migration across the in vitro BBB [2]: induced some migration
